Assay results published in USRE48461E1, “Modulation of androgen receptor expression” (Ionis Pharmaceuticals, Inc., priority 2012, dated 2021).

Experiments:
Assay type in all cases: cell-based, human
[1] = test system: AR mRNA; assay: AR RNA expression in LNCaP cells (complete, CSS, CSS+DHT medium); conditions: for Percent expression of AR in LNCaP cells cultured in CSS + DHT medium: CSS + DHT (1 nM) medium; for Percent expression of AR in LNCaP cells cultured in CSS + DHT medium / Percent expression of AR in LNCaP cells cultured in CSS medium: 48 hrs; for Percent expression of AR in LNCaP cells cultured in complete medium: 48 hours
Protocol: Cells were plated at 1,000 cells per well. […] After an incubation period of 48 hours, RNA levels of AR, PSA and TMPRSS2 were measured.
Cells were plated at 2,000 cells per well and cultured in phenol red-free RPMI supplemented with 5% charcoal stripped serum (Gibco) media for 16 hours. […] After an incubation period of 4 hrs, DHT was added to the medium to a final concentration of 1 nM as indicated. RNAs were collected 48 hrs later and levels of AR, PSA and TMPRSS2 were measured.

[2] = test system: PSA mRNA; assay: PSA expression in LNCaP cells (complete, CSS+DHT medium); conditions: for Percent inhibition of PSA expression in LNCaP cells cultured in CSS + DHT medium: CSS + DHT (1 nM) medium, 48 hrs; for Percent inhibition of PSA expression in LNCaP cells cultured in complete medium: 48 hours
Protocol: Cells were plated at 1,000 cells per well. […] ISIS 549148 was included as a negative control. […] After an incubation period of 48 hours, RNA levels of AR, PSA and TMPRSS2 were measured.
Cells were plated at 2,000 cells per well and cultured in phenol red-free RPMI supplemented with 5% charcoal stripped serum (Gibco) media for 16 hours. […] ISIS 549148 was included as a negative control. […] After an incubation period of 4 hrs, DHT was added to the medium to a final concentration of 1 nM as indicated. RNAs were collected 48 hrs later and levels of AR, PSA and TMPRSS2 were measured. In the absence of DHT, AR expression in LNCaP cells was 95%, PSA expression was 7% and TMPRSS2 expression was 24% compared to the untreated control.

[3] = test system: PSA mRNA; assay: PSA expression in C4-2 cells; conditions: 48 hrs; for Percent inhibition of PSA expression: C4-2 cells, CSS + DHT medium
Protocol: Cells were plated at 1,000 cells per well. […] After an incubation period of 48 hrs, RNA levels of AR, PSA and TMPRSS2 were measured.
Cells were plated at 2,000 cells per well and cultured in CSS media with 1 nM DHT. […] After an incubation period of 48 hrs, RNA levels of AR, PSA and TMPRSS2 were measured.

[4] = test system: C4-2B cells; assay: C4-2B cell proliferation (complete or CSS+DHT medium; Example 30); conditions: C4-2B cells, 5 days
Protocol: After a treatment period of 5 days in complete medium or CSS+1 nM DHT medium, the proliferative capacity of the cancer cells was measured with using CellTiter 96® AQueous One or CellTiter-Glo® Solution Cell Proliferation kit (Promega), following the manufacturer's instructions.

[5] = test system: full length AR mRNA; assay: Full-length AR RNA in 22RV1 cells (complete, CSS+DHT medium); conditions: RNAiMax, 48 hrs
Protocol: (§1) Cells were plated at 1,000 cells per well. […] After an incubation period of 48 hrs, RNA levels of full length AR, the V7 variant, PSA and TMPRSS2 were measured.
(§2) After an incubation period of 48 hrs, RNA levels of full length AR, the V7 variant, PSA and TMPRSS2 were measured.
(§3) Cells were plated at 2,000 cells per well and cultured in CSS media for 16 hours. […] After 4 hrs, 1 nM DHT was added. […] After an incubation period of 48 hrs, RNA levels of AR, AR V7 variant, PSA and TMPRSS2 were measured.

[6] = test system: PSA mRNA; assay: PSA expression in 22RV1 cells; conditions: RNAiMax, 48 hrs
Protocol: as §1, §2, §3

[7] = test system: 22RV1 cells; assay: 22RV1 cell proliferation (Example 32); conditions: 22RV1 cells, complete medium, 5 days
Protocol: After a treatment period of 5 days in complete medium, the proliferative capacity of the cancer cells was measured with using CellTiter 96® AQueous One or CellTiter-Glo® Solution Cell Proliferation kit (Promega), following the manufacturer's instructions. […] Treatment with ISIS oligonucleotides in CSS+DHT medium reduced the proliferative capacity to a greater extent than treatment with MVD-3100. The proliferative capacity of cells cultured in CSS medium without DHT is 12% of untreated control levels.

[8] = test system: 22RV1 cells; assay: 22RV1 apoptosis (Caspase-glo 3/7); conditions: 22RV1 cells, 72 hours
Protocol: After a treatment period of 72 hours in complete medium or CSS+DHT medium, apoptosis of the cancer cells was measured with Caspase-glo 3/7 assay kit (Promega). Results are presented in Tables 131 and 132 as percent apoptosis of the cells, relative to non-treated cells.

## GGCTACTACGCCGTCA (3-10-3 (S)-cEt gapmer, chemistry not fully specified) [ISIS 549148, reference compound]
[1]; 0.04 μM
  Percent expression of AR in LNCaP cells cultured in CSS + DHT medium: 98%
  Percent expression of AR in LNCaP cells cultured in CSS medium: 106%
  Percent expression of AR in LNCaP cells cultured in complete medium: 102%
[1]; 0.2 μM
  Percent expression of AR in LNCaP cells cultured in CSS + DHT medium: 102%
  Percent expression of AR in LNCaP cells cultured in CSS medium: 97%
[1]; 1 μM
  Percent expression of AR in LNCaP cells cultured in CSS + DHT medium: 96%
  Percent expression of AR in LNCaP cells cultured in CSS medium: 96%
  Percent expression of AR in LNCaP cells cultured in complete medium: 109%
[1]; 5.0 μM
  Percent expression of AR in LNCaP cells cultured in CSS medium: 104%
  Percent expression of AR in LNCaP cells cultured in complete medium: 109%
[2]; 0.04 μM
  Percent inhibition of PSA expression in LNCaP cells cultured in CSS + DHT medium: 0%
  Percent inhibition of PSA expression in LNCaP cells cultured in complete medium: 0%
[2]; 0.2 μM
  Percent inhibition of PSA expression in LNCaP cells cultured in CSS + DHT medium: 8%
  Percent inhibition of PSA expression in LNCaP cells cultured in complete medium: 0%
[2]; 1 μM
  Percent inhibition of PSA expression in LNCaP cells cultured in CSS + DHT medium: 0%
  Percent inhibition of PSA expression in LNCaP cells cultured in complete medium: 0%
[2]; 5.0 μM
  Percent inhibition of PSA expression in LNCaP cells cultured in CSS + DHT medium: 9%
  Percent inhibition of PSA expression in LNCaP cells cultured in complete medium: 0%
[3]; 0.04 μM
  Percent inhibition of PSA expression: 0%
  Percent inhibition of PSA expression in C4-2 cells cultured in complete medium: 15%
[3]; 0.2 μM
  Percent inhibition of PSA expression: 8%
  Percent inhibition of PSA expression in C4-2 cells cultured in complete medium: 24%
[3]; 1 μM
  Percent inhibition of PSA expression: 21%
  Percent inhibition of PSA expression in C4-2 cells cultured in complete medium: 24%
[3]; 5.0 μM
  Percent inhibition of PSA expression: 22%
  Percent inhibition of PSA expression in C4-2 cells cultured in complete medium: 23%
[4]; CSS + DHT medium, 0.04 μM
  Proliferation (% untreated control): 109 % untreated control
[4]; CSS + DHT medium, 0.2 μM
  Proliferation (% untreated control): 131 % untreated control
[4]; CSS + DHT medium, 1 μM
  Proliferation (% untreated control): 119 % untreated control
[4]; CSS + DHT medium, 5.0 μM
  Proliferation (% untreated control): 114 % untreated control
[4]; complete medium, 0.04 μM
  Proliferation (% untreated control): 119 % untreated control
[4]; complete medium, 0.2 μM
  Proliferation (% untreated control): 97 % untreated control
[4]; complete medium, 1 μM
  Proliferation (% untreated control): 103 % untreated control
[4]; complete medium, 5.0 μM
  Proliferation (% untreated control): 98 % untreated control
[5]; CSS + DHT medium, 1.34 nM
  Percent inhibition of full-length AR: 2%
[5]; CSS + DHT medium, 4.0 nM
  Percent inhibition of full-length AR: 13%
[5]; CSS + DHT medium, 13.4 nM
  Percent inhibition of full-length AR: 22%
[5]; complete medium, 1.34 nM
  Percent inhibition of full-length AR: 6%
[5]; complete medium, 4.0 nM
  Percent inhibition of full-length AR: 0%
[5]; complete medium, 13.4 nM
  Percent inhibition of full-length AR: 11%
[5]; complete medium, 40 nM
  Percent inhibition of full-length AR: 17%
[6]; CSS + DHT medium, 1.34 nM
  Percent inhibition of PSA expression: 8%
[6]; CSS + DHT medium, 4.0 nM
  Percent inhibition of PSA expression: 23%
[6]; CSS + DHT medium, 13.4 nM
  Percent inhibition of PSA expression: 29%
[6]; complete medium, 1.34 nM
  Percent inhibition of PSA expression: 9%
[6]; complete medium, 4.0 nM
  Percent inhibition of PSA expression: 11%
[6]; complete medium, 13.4 nM
  Percent inhibition of PSA expression: 17%
[6]; complete medium, 40 nM
  Percent inhibition of PSA expression: 27%
[7]; 1.34 nM
  Proliferation (% untreated control): 97 % untreated control
[7]; 4.0 nM
  Proliferation (% untreated control): 97 % untreated control
[7]; 13.4 nM
  Proliferation (% untreated control): 101 % untreated control
[7]; 40 nM
  Proliferation (% untreated control): 83 % untreated control
[8]; CSS + DHT medium, 1.34 nM
  Apoptosis (% untreated control): 113 % untreated control
[8]; CSS + DHT medium, 4.0 nM
  Apoptosis (% untreated control): 94 % untreated control
[8]; CSS + DHT medium, 13.4 nM
  Apoptosis (% untreated control): 102 % untreated control
[8]; CSS + DHT medium, 40 nM
  Apoptosis (% untreated control): 108 % untreated control
[8]; complete medium, 1.34 nM
  Apoptosis (% untreated control): 81 % untreated control
[8]; complete medium, 4.0 nM
  Apoptosis (% untreated control): 76 % untreated control
[8]; complete medium, 13.4 nM
  Apoptosis (% untreated control): 72 % untreated control
[8]; complete medium, 40 nM
  Apoptosis (% untreated control): 123 % untreated control
